Laboratory results published in patent EP4793274A1, “SALT AND CRYSTAL FORM OF KIF18A INHIBITOR COMPOUND, PREPARATION METHOD THEREFOR AND USE THEREOF” (Hubei Bio-Pharmaceutical Industrial Technological Institute …, priority 2023, dated 2025).
Structures can show the parent of a compound that is named as a salt.

Tests used:
[1] = Solubility at room temperature in water, SGF and FaSSIF (HPLC concentration, pH of filtrate, XRPD of residual solid); conditions: for S: solubility: feeding concentration 1 mg/mL; for pH: pH of filtrate
Method: 100 mg of NaCl and 50 mg of Triton X-100 were weighed into a 50 mL volumetric flask and then completely dissolved by addition of purified water. 816 µL of 1 M hydrochloric acid was added, and the pH was adjusted to 1.8 with 1 M hydrochloric acid or 1 M NaOH solution. The mixed solution was brought to the volume by addition of purified water.
340 mg of anhydrous NaH2PO4 and 620 mg of NaCl were weighed into a 100 mL volumetric flask, and then completely dissolved by addition of purified water. 55.44 µL of a 50% NaOH solution was then added, and the pH was adjusted to 6.5 with 1 M hydrochloric acid or 1 M NaOH solution. The mixed solution was brought to the volume by addition of purified water. Subsequently, 110 mg of SIF powder was weighed into a 50 mL volumetric flask and completely dissolved in the solution described above, and the mixed solution was brought to the volume.
Solids at a feeding concentration of 1 mg/mL (calculated based on free crystal form) were rotationally mixed with corresponding vehicles at room temperature. […] After sampling at each time point, the samples were centrifuged (at 10000 rpm) and filtered (through a 0.22 µm PTFE filter head), the HPLC concentrations and pH values of the filtrates were determined, and the centrifuged solid samples were subjected to XRPD analysis.

[2] = Hygroscopicity by dynamic vapor sorption (DVS); type: physicochemical; conditions: 25 °C/80% RH
Method: Dynamic vapor sorption (DVS) curves were acquired on a DVS IntrInsic from Surface Measurement Systems (SMS). The relative humidity at 25 °C was corrected with the deliquescence points of LiCl, Mg(NO3)2, and KCl. Table A-5. DVS test parameters
The percentage changes in mass of the samples when the humidity changed (0% RH to 95% RH) at a constant temperature of 25 °C were collected. 157-166.

[3] = Dynamic solubility at 37 °C in H2O, SGF, FaSSIF and FeSSIF (HPLC concentration, pH of filtrate, XRPD of residual solid); type: physicochemical; conditions: listed as Crystal form E of methanesulfonate; for S: solubility: feeding concentration 10 mg/mL; for FC: crystal form change: XRPD of residual solid; for pH: pH of filtrate
Method: 0.82 mL of glacial acetic acid and 1.18 g of NaCl were added to a 100 mL volumetric flask and completely dissolved by addition of purified water.
The solubility of each sample in H2O, SGF, FaSSIF, and FeSSIF was determined at different time points (1 h, 2 h, 4 h, and 24 h). […] 137-156. […] Table C-2. Summary of dynamic solubility test results at 37 °C

[4] = Solid state stability (XRPD and HPLC purity); type: physicochemical
From the text: 167-171. […] Table C-3. Summary of solid state stability evaluation

[5] = 80 °C/sealed, 1 day, listed as Crystal form E of methanesulfonate

Compound: Cc1cc(-c2cnn(-c3ccc(NS(=O)(=O)CCO)cc3N3CCC4(CC3)CC4)c2)nc(N2CCC(F)(F)CC2)n1 [crystal form C of the hydrochloride]
- S: solubility ([1]; FaSSIF, 2 h, listed as Crystal form C of hydrochloride, 120 min): 120.4 µg/mL
- S: solubility ([1]; FaSSIF, 24 h, listed as Crystal form C of hydrochloride, 1440 min): 36.3 µg/mL
- S: solubility ([1]; H2O, 24 h, listed as Crystal form C of hydrochloride, 1440 min): 0.2 µg/mL
- S: solubility ([1]; SGF, 2 h, listed as Crystal form C of hydrochloride, 120 min): 54.1 µg/mL
- S: solubility ([1]; SGF, 24 h, listed as Crystal form C of hydrochloride, 1440 min): 18.8 µg/mL
- pH ([1]; FaSSIF, 2 h, listed as Crystal form C of hydrochloride): 6.3
- pH ([1]; FaSSIF, 24 h, listed as Crystal form C of hydrochloride): 6.3
- pH ([1]; H2O, 2 h, listed as Crystal form C of hydrochloride): 2.7
- pH ([1]; H2O, 24 h, listed as Crystal form C of hydrochloride): 2.7
- pH ([1]; SGF, 2 h, listed as Crystal form C of hydrochloride): 1.8
- pH ([1]; SGF, 24 h, listed as Crystal form C of hydrochloride): 1.8

Compound: Cc1cc(-c2cnn(-c3ccc(NS(=O)(=O)CCO)cc3N3CCC4(CC3)CC4)c2)nc(N2CCC(F)(F)CC2)n1 [crystal form E of the methanesulfonate]
- vapor sorption values [2]: 2.324%
- S: solubility ([3]; FaSSIF, 1 h, 60 min): 60.4 µg/mL
- S: solubility ([3]; FaSSIF, 2 h, 120 min): 46.6 µg/mL
- S: solubility ([3]; FaSSIF, 4 h, 240 min): 35.9 µg/mL
- S: solubility ([3]; FaSSIF, 24 h, 1440 min): 18.7 µg/mL
- S: solubility ([3]; FeSSIF, 1 h, 60 min): 194.4 µg/mL
- S: solubility ([3]; FeSSIF, 2 h, 120 min): 183.4 µg/mL
- S: solubility ([3]; FeSSIF, 4 h, 240 min): 172.5 µg/mL
- S: solubility ([3]; FeSSIF, 24 h, 1440 min): 89.9 µg/mL
- S: solubility ([3]; H2O, 1 h, 60 min): 18.5 µg/mL
- S: solubility ([3]; H2O, 2 h, 120 min): 14.5 µg/mL
- S: solubility ([3]; H2O, 4 h, 240 min): 12.4 µg/mL
- S: solubility ([3]; H2O, 24 h, 1440 min): 4.5 µg/mL
- S: solubility ([3]; SGF, 1 h, 60 min): 125.1 µg/mL
- S: solubility ([3]; SGF, 2 h, 120 min): 100.2 µg/mL
- S: solubility ([3]; SGF, 4 h, 240 min): 84.6 µg/mL
- S: solubility ([3]; SGF, 24 h, 1440 min): 16.4 µg/mL
- FC: crystal form change ([3]; FaSSIF, 1 h): Yes
- FC: crystal form change ([3]; FaSSIF, 2 h): Yes
- FC: crystal form change ([3]; FaSSIF, 4 h): Yes
- FC: crystal form change ([3]; FaSSIF, 24 h): Yes
- FC: crystal form change ([3]; FeSSIF, 1 h): Yes
- FC: crystal form change ([3]; FeSSIF, 2 h): Yes
- FC: crystal form change ([3]; FeSSIF, 4 h): Yes
- FC: crystal form change ([3]; FeSSIF, 24 h): Yes
- FC: crystal form change ([3]; H2O, 1 h): Yes
- FC: crystal form change ([3]; H2O, 2 h): Yes
- FC: crystal form change ([3]; H2O, 4 h): Yes
- FC: crystal form change ([3]; H2O, 24 h): Yes
- FC: crystal form change ([3]; SGF, 1 h): Yes
- FC: crystal form change ([3]; SGF, 2 h): Yes
- FC: crystal form change ([3]; SGF, 4 h): Yes
- FC: crystal form change ([3]; SGF, 24 h): Yes
- pH ([3]; FaSSIF, 1 h): 2.78
- pH ([3]; FaSSIF, 2 h): 2.76
- pH ([3]; FaSSIF, 4 h): 2.77
- pH ([3]; FaSSIF, 24 h): 2.84
- pH ([3]; FeSSIF, 1 h): 4.69
- pH ([3]; FeSSIF, 2 h): 4.68
- pH ([3]; FeSSIF, 4 h): 4.70
- pH ([3]; FeSSIF, 24 h): 4.70
- pH ([3]; H2O, 1 h): 1.79
- pH ([3]; H2O, 2 h): 1.76
- pH ([3]; H2O, 4 h): 1.80
- pH ([3]; H2O, 24 h): 1.76
- pH ([3]; SGF, 1 h): 1.49
- pH ([3]; SGF, 2 h): 1.46
- pH ([3]; SGF, 4 h): 1.48
- pH ([3]; SGF, 24 h): 1.54
- HPLC results Relative to starting (%) ([4]; 25 °C/60% RH/open, 1 week): 100.0%
- HPLC results Purity (area%) ([4]; 25 °C/60% RH/open, 1 week, listed as Crystal form E of methanesulfonate): 98.39 area%
- HPLC results Relative to starting (%) ([4]; 40 °C/75% RH/open, 1 week): 100.0%
- HPLC results Purity (area%) ([4]; 40 °C/75% RH/open, 1 week, listed as Crystal form E of methanesulfonate): 98.39 area%
- HPLC results Purity (area%) [4, 5]: 98.37 area%
- HPLC results Relative to starting (%) [4, 5]: 100.0%
- HPLC results Purity (area%) ([4]; Starting, listed as Crystal form E of methanesulfonate): 98.36 area%
- Crystal form ([4]; XRPD after 25 °C/60% RH/open, 1 week, listed as Crystal form E of methanesulfonate): Crystal form E of methanesulfonate
- Crystal form ([4]; XRPD after 40 °C/75% RH/open, 1 week, listed as Crystal form E of methanesulfonate): Crystal form E of methanesulfonate
- Crystal form ([4]; XRPD after 80 °C/sealed, 1 day, listed as Crystal form E of methanesulfonate): Crystal form E of methanesulfonate

Compound: Cc1cc(-c2cnn(-c3ccc(NS(=O)(=O)CCO)cc3N3CCC4(CC3)CC4)c2)nc(N2CCC(F)(F)CC2)n1 [free crystal form C]
- S: solubility ([1]; FaSSIF, 2 h, 120 min): 13.6 µg/mL
- S: solubility ([1]; FaSSIF, 24 h, 1440 min): 3.8 µg/mL
- S: solubility ([1]; SGF, 2 h, 120 min): 4 µg/mL
- S: solubility ([1]; SGF, 24 h, 1440 min): 3.4 µg/mL
- pH ([1]; FaSSIF, 2 h): 6.5
- pH ([1]; FaSSIF, 24 h): 6.5
- pH ([1]; H2O, 2 h): 8.7
- pH ([1]; H2O, 24 h): 7.2
- pH ([1]; SGF, 2 h): 1.9
- pH ([1]; SGF, 24 h): 1.9
